# Test system: women of child-bearing ages
# Experiment: Evaluation of improvement in premenstrual syndrome and menstrual pain by questionnaire before and after about 4 weeks of oral tablets
# Assay type: in vivo, human
# From the text: The American Psychiatric Association presents the following diagnosis standard for premenstrual syndrome.
# According to the standard, women who satisfy at least 5 of the following 11 items and at least one of the first 4 items were selected for test.
# (1) Quick change in emotion; sudden sadness, anger or rage
# (2) Persistent severe anger and uneasiness
# (3) Uneasiness and tension
# (4) Depression and hopelessness
# (5) Disinterest in daily lives
# (6) Fatigue or low energy
# (10) Difficulty in emotion control
# (11) Breast tenderness, headache, edema, muscle or joint pain and weight gain
# For the test, 350 mg tablets containing 100 wt % of the ginseng fruit extract of
# A table top tablet making machine (Erweka, Germany) was used.
# 40 women were selected from 48 women of child-bearing ages (in their 20s to 50s) according to the diagnosis standard. They were divided into 4 groups: i.e., unadministered group, red ginseng group, ginsenoside Re group, and ginseng fruit group. Each group was composed of 10 subjects.
# The red ginseng group was asked to take the red ginseng-containing tablets for 4 weeks, twice a day, two tablets once. That is to say, 1400 mg/day of red ginseng extract was administered to them.
# The ginsenoside Re group was asked to take tablets containing ginsenoside Re as an active ingredient twice a day, two tablets once. […] The content of ginsenoside Re was determined based on the analysis result shown in FIG. 1 for comparison of the effect of improving premenstrual syndrome and menstrual pain of ginseng fruit extract and only ginsenoside Re contained therein.
# The ginseng fruit group was asked to take the ginseng fruit extract-containing tablets for 4 weeks, twice a day, two tablets once. That is to say, 1400 mg/day of ginseng fruit extract was administered to them.
# The 40 women were asked to answer questionnaires first after menstruation and, after the administration of nothing, the red ginseng extract or the ginseng fruit extract, to answer questionnaires after the next menstruation was over (about 4 weeks later). The improvement in the symptoms of premenstrual syndrome was evaluated by monitoring the change in total scores based on the questionnaires. One point was given for each item.
# [1] = group total, n = 10 women, about 4 weeks, 1400 mg/day extract or 240 mg/day ginsenoside Re
# [2] = n = 10 per group, about 4 weeks, 1400 mg/day extract or 240 mg/day ginsenoside Re
smiles,measurement,setting,value
"CC(C)=CCC[C@](C)(O[C@@H]1O[C@H](CO)[C@@H](O)[C@H](O)[C@H]1O)[C@H]1CC[C@]2(C)[C@@H]1[C@H](O)C[C@@H]1[C@@]3(C)CC[C@H](O)C(C)(C)[C@@H]3[C@@H](O[C@@H]3O[C@H](CO)[C@@H](O)[C@H](O)[C@H]3O[C@@H]3O[C@@H](C)[C@H](O)[C@@H](O)[C@H]3O)C[C@]12C [Ginsenoside Re, ginsenoside Re]","Total score, difference (before minus after administration)",[1],9
same,"Total score, difference in percent of the score before administration",[1],12%
same,"Total score (premenstrual syndrome questionnaire), after administration","group total, n = 10 women, after next menstruation (about 4 weeks), tablets twice a day, two tablets once: 1400 mg/day extract or 240 mg/day ginsenoside Re",66
same,"Total score (premenstrual syndrome questionnaire), before administration","group total, n = 10 women, one point per item (11 items), questionnaire after menstruation, before administration",75
same,"Number of women who felt the symptoms, difference (before minus after)",[2],2
same,"Number of women who felt the symptoms, difference in percent",[2],20%
same,"Number of women who felt the symptoms of premenstrual syndrome, after administration","n = 10 per group, after about 4 weeks, 1400 mg/day extract or 240 mg/day ginsenoside Re",8
same,"Number of women who felt the symptoms of premenstrual syndrome, before administration","n = 10 per group, before administration",10
